# Results: patent US6472418B1, “Non-peptide NK1 receptors antagonists” (Warner-Lambert Company, priority 1998, dated 2002)
# Target: T1, Human NK1 Receptor (Homo sapiens, UniProt P25103)
# T1 construct: endogenous in cells; host or cells: Human lymphoma IM9 cells (whole cells)
# Assay: In Vitro Human NK1 Receptor Binding Assay ([125I]Bolton-Hunter substance P displacement, IM9 cells)
# Settings: Human lymphoma IM9 cells, [125I]Bolton-Hunter substance P; Table 3, array-synthesis products; read-out: IC50 (nM) hNK1
# Outline: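 Radioligand displacement on whole IM9 human lymphoma cells (2.5×10^6 cells/mL) using [125I]Bolton-Hunter substance P (0.05-0.1 nM), 50 min at 21° C in Tris pH 7.4/MnCl2 buffer with protease inhibitors. Non-specific binding defined by […] [Sar9, Met(O2)11] substance P. Filtration, gamma counting, iterative curve fitting.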
# T1 sequence (P25103 whole entry): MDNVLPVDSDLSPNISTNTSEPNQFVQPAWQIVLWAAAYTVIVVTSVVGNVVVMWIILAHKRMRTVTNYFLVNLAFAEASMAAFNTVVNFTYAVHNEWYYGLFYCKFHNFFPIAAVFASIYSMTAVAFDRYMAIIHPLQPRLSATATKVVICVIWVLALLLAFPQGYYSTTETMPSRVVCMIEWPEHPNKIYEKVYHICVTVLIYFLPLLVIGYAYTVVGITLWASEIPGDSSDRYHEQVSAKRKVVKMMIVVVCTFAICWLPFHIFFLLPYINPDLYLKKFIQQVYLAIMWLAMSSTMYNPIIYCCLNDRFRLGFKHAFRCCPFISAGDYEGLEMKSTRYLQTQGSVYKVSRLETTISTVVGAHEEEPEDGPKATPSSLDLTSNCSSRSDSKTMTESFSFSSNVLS
row,IC50,SMILES
1,1340 nM,"O=C(NCCSCc1ccccc1)C(Cc1c[nH]c2ccccc12)NCc1cc2ccccc2o1 (centres unmarked) [Example 296, 2-[(Benzofuran-2-ylmethyl)-amino]-N-(2-benzylsulfanyl-ethyl)-3-(1H-indol-3-yl)-propionamide]"
2,3610 nM,"CC(Cc1c[nH]c2ccccc12)NC(=O)C(Cc1c[nH]c2ccccc12)NCc1cc2ccccc2o1 (centres unmarked) [Example 297, 2-[(Benzofuran-2-ylmethyl)-amino]-3-(1H-indol-3-yl)-N-[2-(1H-indol-3-yl)-1-methyl-ethyl]-propionamide]"
3,221 nM,"O=C(NCc1ccccc1Cl)C(Cc1c[nH]c2ccccc12)NCc1cc2ccccc2o1 (centres unmarked) [Example 298, 2-[(Benzofuran-2-ylmethyl)-amino]-N-(2-chloro-benzyl)-3-(1H-indol-3-yl)-propionamide]"
4,256 nM,"Cc1ccc(CCNC(=O)C(Cc2c[nH]c3ccccc23)NCc2cc3ccccc3o2)cc1 (centres unmarked) [Example 300, 2-[(Benzofuran-2-ylmethyl)-amino]-3-(1H-indol-3-yl)-N-(2-p-tolyl-ethyl)-propionamide]"
5,53 nM,"O=C(NCc1ccc(F)cc1F)C(Cc1c[nH]c2ccccc12)NCc1cc2ccccc2o1 (centres unmarked) [Example 301, 2-[(Benzofuran-2-ylmethyl)-amino]-N-(2,4-difluoro-benzyl)-3-(1H-indol-3-yl)-propionamide]"
6,174 nM,"O=C(NCc1ccccc1Br)C(Cc1c[nH]c2ccccc12)NCc1cc2ccccc2o1 (centres unmarked) [Example 302, 2-[(Benzofuran-2-ylmethyl)-amino]-N-(2-bromo-benzyl)-3-(1H-indol-3-yl)-propionamide]"
7,17 nM,"O=C(NCc1cc(F)cc(C(F)(F)F)c1)C(Cc1c[nH]c2ccccc12)NCc1cc2ccccc2o1 (centres unmarked) [Example 303, 2-[(Benzofuran-2-ylmethyl)-amino]-N-(3-fluoro-5-trifluoromethyl-benzyl)-3-(1H-indol-3-yl)-propionamide]"
8,43 nM,"COC(=O)C(NC(=O)C(Cc1c[nH]c2ccccc12)NCc1cc2ccccc2o1)c1ccccc1 (centres unmarked) [Example 304, [2-[(Benzofuran-2-ylmethyl)-amino]-3-(1H-indol-3-yl)-propionylamino]-phenyl-acetic acid methyl ester]"
9,400 nM,"O=C(NCCOc1ccccc1)C(Cc1c[nH]c2ccccc12)NCc1cc2ccccc2o1 (centres unmarked) [Example 305, 2-[(Benzofuran-2-ylmethyl)-amino]-3-(1H-indol-3-yl)-N-(2-phenoxy-ethyl)-propionamide]"
10,639 nM,"Nc1ccc(CNC(=O)C(Cc2c[nH]c3ccccc23)NCc2cc3ccccc3o2)cc1 (centres unmarked) [Example 306, N-(4-Amino-benzyl)-2-[(benzofuran-2-ylmethyl)-amino]-3-(1H-indol-3-yl)-propionamide]"
11,392 nM,"CC(CCc1ccccc1)NC(=O)C(Cc1c[nH]c2ccccc12)NCc1cc2ccccc2o1 (centres unmarked) [Example 307, 2-[(Benzofuran-2-ylmethyl)-amino]-3-(1H-indol-3-yl)-N-(1-methyl-3-phenyl-propyl)-propionamide]"
12,731 nM,"O=C(NCc1cccc(O)c1)C(Cc1c[nH]c2ccccc12)NCc1cc2ccccc2o1 (centres unmarked) [Example 308, 2-[(Benzofuran-2-ylmethyl)-amino]-N-(3-hydroxy-benzyl)-3-(1H-indol-3-yl)-propionamide]"

# Same assay, conditions: human NK1 receptor, IM9 cells, [125I]Bolton-Hunter substance P; read-out: IC50 (nM) hNK1
row,IC50,SMILES
1,1280 nM,"CC(Cc1c[nH]c2ccccc12)(NCc1cc2ccccc2o1)C(=O)NCc1ccccn1 (centres unmarked) [compound 23, 2-[(Benzofuran-2-ylmethyl)-amino]-3 (1H-indol-3-yl)-2-methyl-N-pyridin-2 ylmethyl-propionamide]"
2,547 nM,"CC(Cc1c[nH]c2ccccc12)(NCc1cc2ccccc2o1)C(=O)NCc1cccnc1 (centres unmarked) [compound 24, 2-[(Benzofuran-2-ylmethyl)-amino]-3-(1H-indol-3-yl)-2-methyl-N-pyridin-3-ylmethyl-propionamide]"
3,131 nM,"CC(Cc1c[nH]c2ccccc12)(NCc1cc2ccccc2o1)C(=O)NCc1ccncc1 (centres unmarked) [compound 25, 2-[(Benzofuran-2-ylmethyl)-amino]-3-(1H-indol-3-yl)-2-methyl-N-pyridin-4-ylmethyl-propionamide]"
4,1010 nM,"CC(Cc1c[nH]c2ccccc12)(NCc1cc2ccccc2o1)C(=O)NC1CCCCC1 (centres unmarked) [compound 26, 2-[(Benzofuran-2-ylmethyl)-amino]-N-cyclohexyl-3-(1H-indol-3-yl)-2-methyl-propionamide]"
5,311 nM,"CC(Cc1c[nH]c2ccccc12)(NCc1cc2ccccc2o1)C(=O)NCC1CCCCC1 (centres unmarked) [compound 27, 2-[(Benzofuran-2-ylmethyl)-amino]-N-cyclohexylmethyl-3-(1H-indol-3-yl)-2-methyl-propionamide]"
6,44 nM,"CC(Cc1c[nH]c2ccccc12)(NCc1cc2ccccc2o1)C(=O)NCc1ccccc1 (centres unmarked) [compound 28, 2-[(Benzofuran-2-ylmethyl)-amino]-N-benzyl-3-(1H-indol-3-yl)-2-methyl-propionamide]"
7,7 nM,"CC(Cc1c[nH]c2ccccc12)(NCc1cc2ccccc2o1)C(=O)NC(CO)c1ccccc1 (centres unmarked) [compound 29, 2-[(Benzofuran-2-ylmethyl)-amino]-N-(2-hydroxy-1-phenyl-ethyl)-3-(1H-indol-3-yl)-2-methyl-propionamide]"
8,17 nM,"CC(NC(=O)C(C)(Cc1c[nH]c2ccccc12)NCc1cc2ccccc2o1)c1ccc(Cl)cc1 (centres unmarked) [compound 30, 2-[(Benzofuran-2-ylmethyl)-amino]-N-[1-(4-chloro-phenyl)-ethyl]-3-(1H-indol-3-yl)-2-methyl-propionamide]"
9,> 10000 nM,"CC(NC(=O)C(C)(Cc1c[nH]c2ccccc12)NCc1cc2ccccc2o1)c1cccc2ccccc12 (centres unmarked) [compound 31, 2-[(Benzofuran-2-ylmethyl)amino]-3-(1H-indol-3-yl)-2-methyl-N-(1-naphthalen-1-yl-ethyl)-propionamide]"
10,> 10000 nM,"CC(NC(=O)C(C)(Cc1c[nH]c2ccccc12)NCc1cc2ccccc2o1)c1cccc2ccccc12 (centres unmarked) [compound 32, 2-[(Benzofuran-2-ylmethyl)-amino]-3-(1H-indol-3-yl)-2-methyl-N-(1-naphthalen-1-yl-ethyl)-propionamide]"
11,9 nM,"CC(NC(=O)C(C)(Cc1c[nH]c2ccccc12)NCc1cc2ccccc2o1)c1ccc(F)cc1 (centres unmarked) [compound 33, 2-[(Benzofuran-2-ylmethyl)-amino]-N-[1-(4-fluoro-phenyl)-ethyl]-3-(1H-indol-3-yl)-2-methyl-propionamide]"
12,14 nM,"CC(NC(=O)C(C)(Cc1c[nH]c2ccccc12)NCc1cc2ccccc2o1)c1ccc([N+](=O)[O-])cc1 (centres unmarked) [compound 34, 2-[(Benzofuran-2-ylmethyl)-amino]-3-(1H-indol-3-yl)-2-methyl-N-[1-(4-nitro-phenyl)-ethyl]-propionamide]"
13,31 nM,"COc1ccc(C(C)NC(=O)C(C)(Cc2c[nH]c3ccccc23)NCc2cc3ccccc3o2)cc1 (centres unmarked) [compound 35, 2-[(Benzofuran-2-ylmethyl)-amino]-3-(1H-indol-3-yl)-N-[1-(4-methoxy-phenyl)-ethyl]-2-methyl-propionamide]"
14,1620 nM,"CC(NC(=O)C(C)(Cc1c[nH]c2ccccc12)NCc1cc2ccccc2o1)c1ccccc1N (centres unmarked) [compound 36, N-[1-(2-Amino-phenyl)-ethyl]-2-[(benzofuran-2-ylmethyl)-amino]-3-(1H-indol-3-yl)-2-methyl-propionamide]"
15,364 nM,"CC(NC(=O)C(C)(Cc1c[nH]c2ccccc12)NCc1cc2ccccc2o1)c1cccc(N)c1 (centres unmarked) [compound 37, N-[1-(3-Amino-phenyl)-ethyl]-2-[(benzofuran-2-ylmethyl)-amino]-3-(1H-indol-3-yl)-2-methyl-propionamide]"
16,141 nM,"CC(NC(=O)C(C)(Cc1c[nH]c2ccccc12)NCc1cc2ccccc2o1)c1ccc(N)cc1 (centres unmarked) [compound 38, N-[1-(4-Amino-phenyl)-ethyl]-2-[(benzofuran-2-ylmethyl)-amino]-3-(1H-indol-3-yl)-2-methyl-propionamide]"
17,863 nM,"CC(NC(=O)C(C)(Cc1c[nH]c2ccccc12)NCc1cc2ccccc2o1)c1ccc(N(C)C)cc1 (centres unmarked) [compound 39, 2-[(Benzofuran-2-ylmethyl)-amino]-N-[1-(4-dimethylamino-phenyl)-ethyl]-3-(1H-indol-3-yl)-2-methyl-propionamide]"
18,1060 nM,"CC(NC(=O)C(C)(Cc1c[nH]c2ccccc12)NCc1cc2ccccc2o1)c1cccc(N(C)C)c1 (centres unmarked) [compound 40, 2-[(Benzofuran-2-ylmethyl)-amino)-N-[1-(3-dimethylamino-phenyl)-ethyl]-3-(1H-indol-3-yl)-2-methyl-propionamide]"
19,19 nM,"CC(NC(=O)C(C)(Cc1c[nH]c2ccccc12)NCc1cc2ccccc2o1)c1ccsc1 (centres unmarked) [compound 41, 2-[(Benzofuran-2-ylmethyl)-amino]-3-(1H-indol-3-yl)-2-methyl-N-(1-thiophen-3-yl-ethyl)-propionamide]"
20,3610 nM,"CC(Cc1c[nH]c2ccccc12)(NCc1cc2ccccc2o1)C(=O)NCc1ncc(C(=O)O)c(O)n1 (centres unmarked) [compound 43, 2-{[2-[(Benzofuran-2-ylmethyl)-amino]-3-(1H-indol-3-yl)-2-methyl-propionylamino]-methyl}-4-hydroxy-pyrimidine-5-carboxylic acid]"
21,151 nM,"CC(NC(=O)C(C)(Cc1c[nH]c2ccccc12)NCc1cc2ccccc2o1)c1cccnc1 (centres unmarked) [compound 44, 2-[(Benzofuran-2-ylmethyl)-amino]-3-(1H-indol-3-yl)-2-methyl-N-(1-pyridin-3-yl-ethyl)-propionamide]"
22,913 nM,"CC(Cc1c[nH]c2ccccc12)(NCc1cc2ccccc2o1)C(=O)NCCc1ccccn1 (centres unmarked) [compound 45, 2-[(Benzofuran-2-ylmethyl)-amino]-3-(1H-indol-3-yl)-2-methyl-N-(2-pyridin-2-yl-ethyl)-propionamide]"

row,SMILES,IC50
1,"CC(NC(=O)C(C)(Cc1c[nH]c2ccccc12)NCc1cc2ccccc2o1)c1ccccc1 (centres unmarked) [compound 42, 2-[(Benzofuran-2-ylmethyl)-amino]-3-(1H-indol-3-yl)-2-methyl-N-(1-phenyl-ethyl)-propionamide]",261 nM
